Results: ChEMBL document CHEMBL1135231, “Syntheses and binding affinities of 6-nitroquipazine analogues for serotonin transporter. Part 2: 4-substituted 6-nitroquipazines” (Bioorg Med Chem Lett, 2002)
pKi: −log10 of the molar value.

What was measured:
[1] = target: T1, Sodium-dependent serotonin transporter (Rattus norvegicus, UniProt P31652); experiment: Displacement of [3H]citalopram from rat cortical serotonin transporter (SERT)
[2] = target: T1, Sodium-dependent serotonin transporter; experiment: Compound was evaluated for its ability to displace [3H]citalopram binding to the rat cortical Serotonin transporter

T1 sequence (P31652 whole entry): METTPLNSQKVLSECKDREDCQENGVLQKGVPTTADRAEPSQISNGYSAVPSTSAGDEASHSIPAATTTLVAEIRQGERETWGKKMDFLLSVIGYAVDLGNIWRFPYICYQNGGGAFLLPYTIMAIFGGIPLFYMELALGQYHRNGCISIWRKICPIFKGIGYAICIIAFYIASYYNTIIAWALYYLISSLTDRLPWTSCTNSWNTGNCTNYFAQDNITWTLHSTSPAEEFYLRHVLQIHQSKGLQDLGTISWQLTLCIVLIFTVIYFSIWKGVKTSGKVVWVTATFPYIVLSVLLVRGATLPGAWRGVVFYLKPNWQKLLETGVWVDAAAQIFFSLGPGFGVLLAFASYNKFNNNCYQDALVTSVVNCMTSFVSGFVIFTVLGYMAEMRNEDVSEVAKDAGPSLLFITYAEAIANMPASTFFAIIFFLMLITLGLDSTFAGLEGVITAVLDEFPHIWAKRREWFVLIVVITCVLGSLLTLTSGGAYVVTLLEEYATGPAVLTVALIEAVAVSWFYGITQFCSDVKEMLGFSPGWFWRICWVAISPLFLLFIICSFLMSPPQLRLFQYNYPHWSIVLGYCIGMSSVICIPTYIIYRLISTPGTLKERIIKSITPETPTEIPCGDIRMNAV

SMILES | pKi [1] | pKi [2]
O=[N+]([O-])c1ccc2nc(N3CCNCC3)cc(-c3ccccc3)c2c1 | 7.22 | –
O=[N+]([O-])c1ccc2nc(N3CCNCC3)cc(Br)c2c1 | 9.43 | –
CN(C)Cc1ccccc1Sc1ccc(I)cc1N | 10.89 | –
O=[N+]([O-])c1ccc2nc(N3CCNCC3)cc(-c3cccs3)c2c1 | 7.17 | –
C=CCc1cc(N2CCNCC2)nc2ccc([N+](=O)[O-])cc12 | 8.78 | –
O=[N+]([O-])c1ccc2nc(N3CCNCC3)cc(N3CCCC3)c2c1 | 7.21 | –
O=[N+]([O-])c1ccc2nc(N3CCNCC3)cc(-c3ccco3)c2c1 | 8.28 | –
O=[N+]([O-])c1ccc2nc(N3CCNCC3)cc(Cc3ccccc3)c2c1 | 6.90 | –

More lines, now with the values ahead:

pKi [1] | pKi [2] | SMILES
– | 8.76 | O=CN1CCN(c2cc(Br)c3cc([N+](=O)[O-])ccc3n2)CC1
8.76 | – | O=[N+]([O-])c1ccc2nc(N3CCNCC3)cc(I)c2c1
10.52 | – | O=[N+]([O-])c1ccc2nc(N3CCNCC3)cc(Cl)c2c1
8.74 | – | C=Cc1cc(N2CCNCC2)nc2ccc([N+](=O)[O-])cc12
